Assay results published in ChEMBL document CHEMBL3588786, “Synthesis and Biological evaluation of novel 4β-[(5-substituted)-1,2,3,4-tetrazolyl] podophyllotoxins as anticancer compounds” (Bioorg Med Chem Lett, 2015).
Activity calls are given as the source filed them. No cut-off for these calls is given here.

Assays:
A549 [1] = test: Induction of cell cycle arrest in human A549 cells assessed as accumulation at G2/M phase at 5 uM after 24 hrs by flow cytometry; format: functional
A549 [2] = test: Induction of cell cycle arrest in human A549 cells assessed as accumulation at G0 phase at 5 uM after 24 hrs by flow cytometry; format: functional
A549 [3] = test: Induction of cell cycle arrest in human A549 cells assessed as accumulation at G1 phase at 5 uM after 24 hrs by flow cytometry; format: functional
A549 [4] = test: Induction of cell cycle arrest in human A549 cells assessed as accumulation at S phase at 5 uM after 24 hrs by flow cytometry; format: functional
SK-N-SH = test: Cytotoxicity against human SK-N-SH cells assessed as cell viability by SRB assay; format: functional, cell-based
A549 [5] = test: Cytotoxicity against human A549 cells assessed as cell viability by SRB assay; format: functional, cell-based
HeLa = test: Cytotoxicity against human HeLa cells assessed as cell viability by SRB assay; format: functional, cell-based
MCF7 = test: Cytotoxicity against human MCF7 cells assessed as cell viability by SRB assay; format: functional, cell-based
Tubulin (Bos taurus) = Tubulin (Bos taurus) (UniProt Q6B856+Q862F3); test: Inhibition of bovine brain tubulin polymerization assessed as increase in fluorescence intensity at 5 uM relative to control
A549 [6] = test: Antimitotic activity against human A549 cells at 5 uM after 12 hrs by flow cytometry; format: functional, cell-based

SMILES: CC(=O)O[C@H]1C(=O)[C@@]2(C)[C@H]([C@H](OC(=O)c3ccccc3)[C@]3(O)C[C@H](OC(=O)[C@H](O)[C@@H](NC(=O)c4ccccc4)c4ccccc4)C(C)=C1C3(C)C)[C@]1(OC(C)=O)CO[C@@H]1C[C@@H]2O [PACLITAXEL]
- Activity (A549 [1]): 70.48%
- Activity (A549 [2]): 9.81%
- Activity (A549 [3]): 13.7%
- Activity (A549 [4]): 6.01%

SMILES: COc1cc([C@@H]2c3cc4c(cc3[C@@H](n3nnnc3C(=O)OCc3ccccc3)[C@H]3COC(=O)[C@H]23)OCO4)cc(OC)c1OC
- IC50 (SK-N-SH): 4.58 µM
- IC50 (A549 [5]): 2.48 µM
- IC50 (HeLa): 4.01 µM
- IC50 (MCF7): 4.85 µM
- inhibition (Tubulin (Bos taurus)): 57.5%
- Activity (A549 [1]): 65.34%
- Activity (A549 [2]): 10.28%
- Activity (A549 [3]): 17.77%
- Activity (A549 [4]): 6.61%

SMILES: CCOC(=O)c1nnnn1[C@@H]1c2cc3c(cc2[C@@H](c2cc(OC)c(OC)c(OC)c2)[C@H]2C(=O)OC[C@@H]21)OCO3
- IC50 (SK-N-SH): 3.61 µM
- IC50 (A549 [5]): 2.4 µM
- IC50 (HeLa): 4.76 µM
- IC50 (MCF7): 7.47 µM
- inhibition (Tubulin (Bos taurus)): 99.2%
- Activity (A549 [1]): 65.6%
- Activity (A549 [2]): 12.44%
- Activity (A549 [3]): 16.44%
- Activity (A549 [4]): 5.52%

SMILES: COC(=O)c1nnnn1[C@@H]1c2cc3c(cc2[C@@H](c2cc(OC)c(OC)c(OC)c2)[C@H]2C(=O)OC[C@@H]21)OCO3
- IC50 (SK-N-SH): 6.5 µM
- IC50 (A549 [5]): 3.11 µM
- IC50 (HeLa): 5.25 µM
- IC50 (MCF7): 6.97 µM
- inhibition (Tubulin (Bos taurus)): 12.4%
- Activity (A549 [1]): 45.43%
- Activity (A549 [6]): Active
- Activity (A549 [2]): 19.92%
- Activity (A549 [3]): 30.01%
- Activity (A549 [4]): 4.61%

SMILES: COC(=O)c1nnnn1[C@@H]1c2cc3c(cc2[C@@H](c2cc(OC)c(O)c(OC)c2)[C@H]2C(=O)OC[C@@H]21)OCO3
- IC50 (SK-N-SH): 5.64 µM
- IC50 (A549 [5]): 2.44 µM
- IC50 (HeLa): 3.95 µM
- IC50 (MCF7): 5.27 µM
- inhibition (Tubulin (Bos taurus)): 28.3%
- Activity (A549 [1]): 68.48%
- Activity (A549 [2]): 9.96%
- Activity (A549 [3]): 15.18%
- Activity (A549 [4]): 6.38%

SMILES: COc1cc([C@@H]2c3cc4c(cc3[C@H](O)[C@H]3COC(=O)[C@H]23)OCO4)cc(OC)c1OC [PODOFILOX]
- IC50 (SK-N-SH): 7.92 µM
- IC50 (A549 [5]): 2.55 µM
- IC50 (HeLa): 1.92 µM
- IC50 (MCF7): 3.34 µM
- inhibition (Tubulin (Bos taurus)): 93.9%
- Activity (A549 [1]): 60.77%
- Activity (A549 [2]): 9.48%
- Activity (A549 [3]): 19.71%
- Activity (A549 [4]): 10.03%

SMILES: COc1cc([C@@H]2c3cc4c(cc3[C@@H](n3nnnc3C(=O)c3ccccc3)[C@H]3COC(=O)[C@H]23)OCO4)cc(OC)c1O
- IC50 (SK-N-SH): 3.49 µM
- IC50 (A549 [5]): 2.71 µM
- IC50 (HeLa): 3.61 µM
- IC50 (MCF7): 7.02 µM
- inhibition (Tubulin (Bos taurus)): 11.5%
- Activity (A549 [1]): 63.93%
- Activity (A549 [6]): Active
- Activity (A549 [2]): 9.66%
- Activity (A549 [3]): 19.89%
- Activity (A549 [4]): 6.49%

SMILES: CCOC(=O)c1nnnn1[C@@H]1c2cc3c(cc2[C@@H](c2cc(OC)c(O)c(OC)c2)[C@H]2C(=O)OC[C@@H]21)OCO3
- IC50 (SK-N-SH): 25.9 µM
- IC50 (A549 [5]): 6.49 µM
- IC50 (HeLa): 29.1 µM
- IC50 (MCF7): 12.4 µM
- inhibition (Tubulin (Bos taurus)): 2.68%
- Activity (A549 [1]): 74.86%
- Activity (A549 [6]): Active
- Activity (A549 [2]): 7.3%
- Activity (A549 [3]): 11.83%
- Activity (A549 [4]): 6%

SMILES: COc1cc([C@@H]2c3cc4c(cc3[C@@H](n3nnnc3C(=O)OCc3ccccc3)[C@H]3COC(=O)[C@H]23)OCO4)cc(OC)c1O
- IC50 (SK-N-SH): 6.16 µM
- IC50 (A549 [5]): 2.98 µM
- IC50 (HeLa): 4.77 µM
- IC50 (MCF7): 9.44 µM
- inhibition (Tubulin (Bos taurus)): 29.8%
- Activity (A549 [1]): 63.19%
- Activity (A549 [2]): 8.61%
- Activity (A549 [3]): 19.95%
- Activity (A549 [4]): 8.25%

SMILES: COC(=O)Nc1nc2ccc(C(=O)c3cccs3)cc2n1C
- inhibition (Tubulin (Bos taurus)): 65.3%

SMILES: COc1cc([C@@H]2c3cc4c(cc3[C@@H](n3nnnc3S(=O)(=O)c3ccc(C)cc3)[C@H]3COC(=O)[C@H]23)OCO4)cc(OC)c1O
- IC50 (SK-N-SH): 3.44 µM
- IC50 (A549 [5]): 3.29 µM
- IC50 (HeLa): 3.05 µM
- IC50 (MCF7): 5.29 µM
- inhibition (Tubulin (Bos taurus)): 22.5%
- Activity (A549 [1]): 62.48%
- Activity (A549 [2]): 11%
- Activity (A549 [3]): 19.28%
- Activity (A549 [4]): 7.28%

SMILES: COc1cc([C@@H]2c3cc4c(cc3[C@@H](n3nnnc3S(=O)(=O)c3ccc(C)cc3)[C@H]3COC(=O)[C@H]23)OCO4)cc(OC)c1OC
- IC50 (SK-N-SH): 5.31 µM
- IC50 (A549 [5]): 2.89 µM
- IC50 (HeLa): 3.15 µM
- IC50 (MCF7): 6.99 µM
- inhibition (Tubulin (Bos taurus)): 0.73%
- Activity (A549 [1]): 54.73%
- Activity (A549 [6]): Active
- Activity (A549 [2]): 19.96%
- Activity (A549 [3]): 20.09%
- Activity (A549 [4]): 5.22%

SMILES: COc1cccc2c1C(=O)c1c(O)c3c(c(O)c1C2=O)C[C@@](O)(C(=O)CO)C[C@@H]3O[C@H]1C[C@H](N)[C@H](O)[C@H](C)O1 [DOXORUBICIN]
- IC50 (SK-N-SH): 7.36 µM
- IC50 (A549 [5]): 6.13 µM
- IC50 (HeLa): 10.8 µM
- IC50 (MCF7): 12.3 µM

SMILES: COc1cc([C@@H]2c3cc4c(cc3[C@@H](n3nnnc3C(=O)c3ccccc3)[C@H]3COC(=O)[C@H]23)OCO4)cc(OC)c1OC
- IC50 (SK-N-SH): 4.68 µM
- IC50 (A549 [5]): 4.29 µM
- IC50 (HeLa): 4.76 µM
- IC50 (MCF7): 6.89 µM
- inhibition (Tubulin (Bos taurus)): 72.5%
- Activity (A549 [1]): 69.37%
- Activity (A549 [2]): 11.01%
- Activity (A549 [3]): 13.88%
- Activity (A549 [4]): 5.73%
